Source: patent publication US12605464B2, “Cyclohexane lipidoids for nucleic acid transfection and use thereof” (USTAV ORGANICKE CHEMIE A BIOCHEMIE AV CR V.V.I., priority 2021, dated 2026)

Experiments:
HEK293T = experiment: Cellular toxicity of LNPs, CellTiterGlo 2.0 cell viability assay; format: cell-based, human; settings: 100 μM total lipid components, 24 hours, normalized to non-transfected cells
Procedure: (§1) A human cell line derived from embryonic kidney cells expressing SV40 large T antigen (HEK293T), and human hepatocyte carcinoma cell line (HepG2) were cultured in 96-well plates (5×10^4 cells in […] of culture medium per well) in Dulbecco's modified medium (DMEM) supplemented with 10% foetal bovine serum (FBS) at 37° C. in 5% CO2. Cells were transfected with 2 μl of LNPs B07-B12 generated in triplicates in Example 20 (the final total concentration of all lipid components in the well was 20 μM) or 10 μl of LNPs (the final total concentration of all lipid components in the well was 100 μM) and subsequently incubated for 24 hours. The cytotoxicity of LNPs was analyzed in a CellTiterGlo 2.0 cell viability assay (Promega, USA). Cell viability was normalized to non-transfected cells (control).

HepG2 = experiment: as above; format: cell-based, human; settings: HepG2, 100 μM total lipid components, 24 hours, normalized to non-transfected cells
Procedure: as §1

Structure (SMILES): CCCCCCCCCCCCN(CCCCCCCCCCCC)CCCNC(=O)c1cc(C(=O)NCCCN(CCCCCCCCCCCC)CCCCCCCCCCCC)cc(C(=O)NCCCN(CCCCCCCCCCCC)CCCCCCCCCCCC)c1 [TT3]
- Cytotoxicity expressed as cell viability (%) (HEK293T): 27%
- Cytotoxicity expressed as cell viability (%) (HepG2): 15%
